According to patent US20240309066A1, “MEANS AND METHODS FOR THE TREATMENT OF CALCIUM CRYSTAL DEPOSITION DISEASES” (UNIVERSITEIT MAASTRICHT, priority 2021, published 2024):
[ ]: non-standard residue; d: D form.

How the values were obtained:
[1] = tested on: Bone marrow derived stromal cells (BMSCs); assay: Beta-glycerophosphate-induced BMSC osteogenic differentiation model; assay type: cell-based, human; details: 21 days osteogenic differentiation medium with BGP, 2.1 μM peptide
Procedure: (§1) FIG. 3: Inhibition of cellular calcification of human articular chondrocytes, vascular smooth muscle cells and bone marrow stromal cells by the peptide according to SEQ ID NO: 1. Representative phase-contrast microscopy images of in vivo cell assays are shown. • A) Human articular chondrocytes (HACs) were stimulated for 7 days with 1 mM ATP and with or without 20 μM of the peptide. Results were obtained from three chondrocyte donors with three biological replicates each. • B) Vascular smooth muscle cells (VSMC) were stimulated for 7 days with 4.5 mM ionic calcium in the presence or absence of 20 μM of peptide. Results were obtained from three VSMC donors with three biological replicates each. • C) BMSCs were differentiated for 21 days in osteogenic differentiation medium containing beta-glycerophosphate (BGP) in the pre- or absence of 2.1 μM of peptide. BMSC; one donor with four biological replicates was used. • Left panels: phase-contrast images were obtained at the final day of each experiment. […] Scale bars indicate 200 μm. • Right panels: quantification of total calcium precipitation per well measured with the Randox total calcium assay and normalized to total protein. […]
(§2) Quantification of deposited calcium was carried out using a calcium determination kit (Randox, London, United Kingdom) according to the manufacturer's instruction, after hydrolysis of mineral deposits in 0.1M HCl. […]

[2] = Total calcium, phosphate and protein measurements in pellets of in vitro precipitates; assay type: biochemical; details: 24 hours; control 14%
Procedure: To test this, particles were allowed to form for 2 or 24 hours in the presence or absence (control) of bFetuin or the peptide according to SEQ ID NO: 1. and subsequently harvested by centrifugation, washed and dissolved in acid, followed by total calcium, phosphate and protein measurements in the pellet and the supernatant.
Quantification of deposited calcium was carried out using a calcium determination kit (Randox, London, United Kingdom) according to the manufacturer's instruction, after hydrolysis of mineral deposits in 0.1M HCl. Calcium measurements were normalized to protein content using micro DC Protein Assay (Termo Scientifc, Bleiswijk, the Netherlands). To be able to measure protein content, an equal amount of 0.1M NaOH was used to neutralize the acid and 0.1% SDS (final concentration) was added to lyse cells in the cellular calcification assays.
Quantification of deposited phosphate was carried out using a phosphate colorimetric assay (Sigma, MK030) according to manufacturer's instruction after solubilisation of precipitates in 0.1M HCL.

[3] = In vitro calcium phosphate precipitation assay; assay type: biochemical; details: for Precipitation inhibition: absorption measurement before SEM processing
Procedure: To evaluate the inhibitory capacity of the peptide according to SEQ ID NO: 1, we utilized a well-established in vitro calcium phosphate precipitation assay (17-19) as described in example 2.
Calcium precipitation assays were performed essentially as described before with minor adaptations (19). 2.4 mM ionic calcium (0.1M stock) was added to a 50 mM Tris/HCL buffer (pH 7.4) in 1.5 ml Eppendorf tubes. Peptide or bFetuin were added and incubated for 15 minutes at room temperature. Subsequently, 1.6 mM phosphate buffer (0.1M stock) was added and the mixture was incubated for 120 minutes at 37° C.
Data were normalized to the first positive control (normalized to 100%) in each experiment. As an internal reference for precipitation inhibition, we used 1 mg/ml, 0.5 mg/ml and 0.25 mg/ml bovine Fetuin (bFetuin, Sigma-Aldrich, #F2379) in each experiment. After 2 hours, samples were transferred to cuvettes (1.0 ml reactions) and absorbance was measured at A620 in a plate reader with a plate reader (Biorad). Each condition consisted of three biological replicates.

rat osteoarthritis model = assay: Rat osteoarthritis model (medial meniscal tear, collateral ligament transection); assay type: in vivo, Lewis rats
Procedure: FIG. 4: Intra-articular injection of the peptide ameliorates cartilage histopathology and improves animal mobility in a rat osteoarthritis model. Osteoarthritis was induced by introducing a surgical tear of the medial meniscus and transection of the collateral ligament (N=40). Bi-weekly intra-articular injections of 50 μl peptide with a concentration of 20 μM or 50 μl vehicle (0.9% NaCl) were performed (N=20 per group). Necropsy was performed at day 28, followed by histological analyses according to the OARSI scoring system.
• A) Representative toluidine blue stained tissue sections from the best, average and worst histological appearance. Cartilage tissue is stained in dark blue. • B) The OARSI score was obtained by multiplying grade and stage of cartilage damage per animal by two blinded observers. Statistical comparison was done with a two-tailed t-test. *=p. value<0.05. • C) Gait analyses score at day 20 of the experiment. Four measurements per animal were performed and each dot represents the average of one animal in the graph. Statistical significance between groups was determined with a Mann-Whitney U test. *=p. value<0.05.
We also evaluated the effect of bi-weekly intra-articular injection of the peptide in a rat osteoarthritis model (FIG. 4). Osteoarthritis was induced with a surgical tear of the medial meniscus and transection of the collateral ligament (N=40). […]

[4] = tested on: Vascular smooth muscle cells (VSMC); assay: Calcium-induced vascular smooth muscle cell calcification model; assay type: cell-based, human; details: 7 days, 4.5 mM ionic calcium, 20 μM peptide
Procedure: as §1, with “peptide.” for “peptide. Results were obtained from three VSMC donors with three biological replicates each. • C) BMSCs were differentiated for 21 days in osteogenic differentiation medium containing beta-glycerophosphate (BGP) in the pre- or absence of 2.1 μM of peptide. BMSC; one donor with four biological replicates was used. • Left panels: phase-contrast images were obtained at the final day of each experiment.”
as §2
Human primary smooth muscle cells (VSMCs) were derived from tissue explants from patients undergoing surgery. […] Success of the isolation was determined by immunofluorescence staining for positive expression of alpha-smooth muscle actin (αSMA), smooth muscle protein 22-alpha (SM22α), phosphorylated myosin light chain 2 (pMLC) and absence of S100 C Calcium Binding Protein 4 (S100A4). […]

[5] = tested on: Human articular chondrocytes (HACs); assay: ATP-induced human articular chondrocyte calcification model; assay type: cell-based; details: 7 days, 1 mM ATP, 20 μM peptide, vs control with ATP
Procedure: as §1, §2

Molecule	inhibition of calcium precipitation [1] [%]	phosphate content in pellet [2] [%]	Precipitation inhibition ([3]; 20 μM peptide, 2 hours) [%]	efficiency of inhibition of in vitro calcium phosphate precipitation, comparison ([3]; compared with bFetuin)	concentration range down to which activity remained ([3]; dilution series in steps of 10, 2 hours)	concentration able to statistically significantly inhibit precipitation compared to control ([3]; dilution series, 2 hours) [aM]	concentration not able to statistically significantly inhibit precipitation ([3]; dilution series, 2 hours) [aM]	reduction of histopathological OA score (OARSI) (rat osteoarthritis model; day 28 post-surgery, bi-weekly intra-articular 50 μl of 20 μM, vs vehicle) [%]	animals having a normal gait (rat osteoarthritis model; gait analysis day 20, bi-weekly intra-articular 50 μl of 20 μM, vehicle 5/20)	inhibition of calcification [4]	inhibition of calcification [5]	Precipitation inhibition ([3]; 0.5 mg/ml bFetuin, 2 hours) [%]	inhibition of precipitation ([3]; 1 mg/ml (20.6 μM), positive control)	concentration at which the inhibitory effect is lost ([3]; dilution series, 2 hours, molar equivalent of μg/ml) [nM]
peptide according to SEQ ID NO: 1: circular polypeptide of 30 D-amino acids LIYRQPNCDDPETEEAALVAIDYIAPHGPG, D-Leucine at position 1 linked to D-Glycine at position 30 (cyclo([dL][dI][dY][dR][dQ][dP][dN][dC][dD][dD][dP][dE][dT][dE][dE][dA][dA][dL][dV][dA][dI][dD][dY][dI][dA][dP][dH]G[dP]G); SMILES CC[C@@H](C)[C@H]1NC(=O)[C@@H](C)NC(=O)[C@@H](C(C)C)NC(=O)[C@@H](CC(C)C)NC(=O)[C@@H](C)NC(=O)[C@@H](C)NC(=O)[C@@H](CCC(=O)O)NC(=O)[C@@H](CCC(=O)O)NC(=O)[C@@H]([C@H](C)O)NC(=O)[C@@H](CCC(=O)O)NC(=O)[C@H]2CCCN2C(=O)[C@@H](CC(=O)O)NC(=O)[C@@H](CC(=O)O)NC(=O)[C@@H](CS)NC(=O)[C@@H](CC(N)=O)NC(=O)[C@H]2CCCN2C(=O)[C@@H](CCC(N)=O)NC(=O)[C@@H](CCCNC(=N)N)NC(=O)[C@@H](Cc2ccc(O)cc2)NC(=O)[C@@H]([C@H](C)CC)NC(=O)[C@@H](CC(C)C)NC(=O)CNC(=O)[C@H]2CCCN2C(=O)CNC(=O)[C@@H](Cc2c[nH]cn2)NC(=O)[C@H]2CCCN2C(=O)[C@@H](C)NC(=O)[C@@H]([C@H](C)CC)NC(=O)[C@@H](Cc2ccc(O)cc2)NC(=O)[C@@H](CC(=O)O)NC1=O; listed as Homo Sapiens)	81	9	~50	more efficiently than bFetuin	remained active until the attomolar concentration range	20.6	2.6	38	16/20	58-61%	22-33%	–	–	–
bFetuin: bovine Fetuin (Sigma-Aldrich, #F2379), positive control for precipitation inhibition (protein, UniProt Q58D62 19-387, looked up) Fetuin-B: TSPPQPAARPSSLLSLDCNSSYVLDIANDILQDINRDRKDGYVLSLNRVSDAREHRQEAGLGSLFYFTLDVLETGCHVLSRTSWKNCEVRIFHESVYGQCKAIFYINKEKRIFYLPAYNCTLRPVSQSAIIMTCPDCPSTSPYDLSNPRFMETATESLAKYNSESPSKQYSLVKITKTSSQWVFGPAYFVEYLIKESPCVKSEGSSCALESPGSVPVGICHGSLGEPQGNQGKIISVTCSFFNSQAPTPRGENATVNQRPANPSKTEELQQQNTAPTNSPTKAVPKGSVQYLPDWDKKREGSQEKDPVETFPVQLDLTTNPQGESLDVSFLFQEPMEEKVVVLPFPSKEQRSAECPGPAQKGYPFILPS	–	9	–	–	–	–	–	–	–	–	–	~50	completely inhibit precipitation	20.6 to 200.6
